The results in this text go back to patent publication US8962641B2, “Pyrimidine-substituted pyrrolidine derivatives, pharmaceutical compositions and uses thereof” (Boehringer Ingelheim International GmbH, priority 2013, dated 2015).

Each structure is given as a SMILES string.

The target of the assay is human ACC2 (Homo sapiens (Human), UniProt O00763). The assay can be described thus: ACC2 assay (spectrophotometric 384 well assay, NADH-linked kinetic method). It is filed as biochemical. The conditions noted are these: hACC2 construct lacking 128 N-terminal amino acids; coupled lactate dehydrogenase/pyruvate kinase reaction, 340 nm, 25° C. Put shortly: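 Baculovirus/insect-cell human ACC2, anion-exchange purified; ADP formation coupled to pyruvate kinase/lactate dehydrogenase, NADH loss followed at 340 nm, 25° C, 15 min. Final 200 μM NADH and acetyl-CoA, 500 uM ATP; vehicle and no-acetyl-CoA wells set 100% and 0%.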
Sequence of human ACC2 (O00763 129-2458): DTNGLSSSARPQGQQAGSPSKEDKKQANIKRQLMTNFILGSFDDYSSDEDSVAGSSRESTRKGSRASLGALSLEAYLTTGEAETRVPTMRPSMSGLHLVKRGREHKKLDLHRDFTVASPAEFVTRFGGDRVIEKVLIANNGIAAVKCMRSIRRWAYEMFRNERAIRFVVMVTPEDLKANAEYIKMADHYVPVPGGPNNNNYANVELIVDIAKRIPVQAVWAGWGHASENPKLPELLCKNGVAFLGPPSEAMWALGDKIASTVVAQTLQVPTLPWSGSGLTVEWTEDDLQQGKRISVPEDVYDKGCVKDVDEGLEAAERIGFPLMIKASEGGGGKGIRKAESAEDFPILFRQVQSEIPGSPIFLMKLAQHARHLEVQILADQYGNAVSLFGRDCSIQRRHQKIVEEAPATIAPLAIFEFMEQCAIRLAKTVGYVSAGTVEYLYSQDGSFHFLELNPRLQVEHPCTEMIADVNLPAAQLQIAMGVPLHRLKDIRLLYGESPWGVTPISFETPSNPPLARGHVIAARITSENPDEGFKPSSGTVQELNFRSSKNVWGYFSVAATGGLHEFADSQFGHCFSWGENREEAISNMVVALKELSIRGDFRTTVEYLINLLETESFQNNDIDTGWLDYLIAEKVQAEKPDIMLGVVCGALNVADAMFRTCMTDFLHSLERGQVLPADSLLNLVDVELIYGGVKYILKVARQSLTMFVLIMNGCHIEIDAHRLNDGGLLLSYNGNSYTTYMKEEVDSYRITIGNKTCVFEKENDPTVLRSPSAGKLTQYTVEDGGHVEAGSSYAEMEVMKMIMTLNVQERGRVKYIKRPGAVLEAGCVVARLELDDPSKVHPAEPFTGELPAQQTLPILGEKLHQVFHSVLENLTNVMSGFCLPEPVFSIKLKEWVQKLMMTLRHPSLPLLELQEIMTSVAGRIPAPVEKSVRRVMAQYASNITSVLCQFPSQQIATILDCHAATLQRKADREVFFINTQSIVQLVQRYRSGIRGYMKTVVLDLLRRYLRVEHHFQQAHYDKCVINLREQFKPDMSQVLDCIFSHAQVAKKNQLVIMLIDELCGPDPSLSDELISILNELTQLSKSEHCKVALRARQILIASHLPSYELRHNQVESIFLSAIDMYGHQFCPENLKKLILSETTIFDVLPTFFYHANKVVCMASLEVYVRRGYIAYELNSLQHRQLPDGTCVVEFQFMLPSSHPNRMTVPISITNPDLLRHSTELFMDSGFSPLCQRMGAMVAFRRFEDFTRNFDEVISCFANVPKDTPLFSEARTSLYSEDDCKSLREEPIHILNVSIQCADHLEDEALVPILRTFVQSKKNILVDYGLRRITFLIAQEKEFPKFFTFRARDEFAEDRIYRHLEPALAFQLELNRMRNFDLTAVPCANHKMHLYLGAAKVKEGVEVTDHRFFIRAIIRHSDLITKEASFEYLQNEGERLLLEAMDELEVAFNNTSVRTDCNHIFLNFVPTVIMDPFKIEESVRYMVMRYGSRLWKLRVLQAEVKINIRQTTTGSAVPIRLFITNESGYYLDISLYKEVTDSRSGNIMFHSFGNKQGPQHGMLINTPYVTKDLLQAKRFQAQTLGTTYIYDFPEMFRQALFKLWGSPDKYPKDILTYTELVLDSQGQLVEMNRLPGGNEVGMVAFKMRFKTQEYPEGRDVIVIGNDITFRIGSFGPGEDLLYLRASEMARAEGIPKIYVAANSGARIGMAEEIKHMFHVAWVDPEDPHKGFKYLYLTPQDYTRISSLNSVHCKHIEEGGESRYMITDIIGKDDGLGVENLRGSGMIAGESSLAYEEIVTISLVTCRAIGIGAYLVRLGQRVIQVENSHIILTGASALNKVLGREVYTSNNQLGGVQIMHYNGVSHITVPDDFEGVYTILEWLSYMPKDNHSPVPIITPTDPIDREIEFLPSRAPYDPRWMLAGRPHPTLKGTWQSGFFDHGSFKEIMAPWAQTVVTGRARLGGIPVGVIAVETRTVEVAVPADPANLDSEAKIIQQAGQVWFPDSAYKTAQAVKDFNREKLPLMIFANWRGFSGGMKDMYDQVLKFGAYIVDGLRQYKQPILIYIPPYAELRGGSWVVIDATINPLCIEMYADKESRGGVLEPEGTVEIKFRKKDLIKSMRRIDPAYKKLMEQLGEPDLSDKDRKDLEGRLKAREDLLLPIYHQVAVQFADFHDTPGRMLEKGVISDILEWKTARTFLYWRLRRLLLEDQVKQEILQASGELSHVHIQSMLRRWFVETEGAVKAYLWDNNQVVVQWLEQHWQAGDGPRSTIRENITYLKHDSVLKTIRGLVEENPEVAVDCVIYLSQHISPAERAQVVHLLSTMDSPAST

For the molecule `CC(=O)N[C@@H](C)c1ccc(O[C@@H]2CCN(c3nc(N(C)CCO)ncc3F)C2)cc1` [Example 8.205], 607 nM corresponded to half-maximal inhibition (IC50).
With `CC(=O)N[C@@H](C)c1ccc(O[C@@H]2CCN(c3ccnc(N(C)CCC(F)(F)F)n3)C2)cc1` [Example 8.206] the figure was 75 nM.
The value for `CC(=O)N[C@@H](C)c1ccc(O[C@@H]2CCN(c3ccnc(N4CCC(F)(F)CC4)n3)C2)cc1` [Example 8.207] was 99 nM; that for `CC(=O)N[C@@H](C)c1ccc(O[C@@H]2CCN(c3ccnc(N4CCCC(F)(F)C4)n3)C2)cc1` [Example 8.208] was 172 nM; that for `CC(=O)N[C@@H](C)c1ccc(O[C@@H]2CCN(c3nc(N4CCOC(C)(C)C4)ncc3Cl)C2)cc1` [Example 8.209] was 351 nM.
With `CC(=O)N[C@@H](C)c1ccc(O[C@@H]2CCN(c3nc(N4CCOCC4C)ncc3Cl)C2)cc1` (stereo partly drawn) [Example 8.210] the figure was 714 nM.
In turn, `CC(=O)N[C@@H](C)c1ccc(O[C@@H]2CCN(c3nc(N(CCO)C4CC4)ncc3Cl)C2)cc1` [Example 8.211] came in with an IC50 of 506 nM.
With `CC(=O)N[C@@H](C)c1ccc(O[C@@H]2CCN(c3ncnc(N4CCc5nocc5C4)c3F)C2)cc1` [Example 8.212] the figure was 998 nM; with `COC1CCN(c2ncnc(N3CC[C@@H](Oc4ccc([C@H](C)NC(C)=O)cc4)C3)c2F)CC1` [Example 8.213], 360 nM; with `CC(=O)N[C@@H](C)c1ccc(O[C@@H]2CCN(c3ccnc(N4CCC(C)(O)C4)n3)C2)cc1` (stereo partly drawn) [Example 8.214], 865 nM.
The molecule `CC(=O)N[C@@H](C)c1ccc(O[C@@H]2CCN(c3nc(N(C)CCOC(C)(C)C)ncc3F)C2)cc1` [Example 8.215] yielded an IC50 of 719 nM.
With `CC(=O)N[C@@H](C)c1ccc(O[C@@H]2CCN(c3nc(N4CCCOCC4)ncc3F)C2)cc1` [Example 8.216] the figure was 125 nM.
The value for `CC(=O)N[C@@H](C)c1ccc(O[C@@H]2CCN(c3nc(N4CC(F)(F)C(F)(F)C4)ncc3F)C2)cc1` [Example 8.217] was 145 nM; that for `CC(=O)N[C@@H](C)c1ccc(O[C@@H]2CCN(c3nc(N4CCCC(F)(F)C4)ncc3F)C2)cc1` [Example 8.218] was 140 nM.
`CC(=O)N[C@@H](C)c1ccc(O[C@@H]2CCN(c3nc(N4CC(C)C4)ncc3Cl)C2)cc1` [Example 8.219] showed an IC50 of 355 nM.
Turning to `CC(=O)N[C@@H](C)c1ccc(O[C@@H]2CCN(c3nc(N4CCCOCC4)ncc3Cl)C2)cc1` [Example 8.220], the half-maximal inhibitory concentration (IC50) worked out at 182 nM.
With `CC(=O)N[C@@H](C)c1ccc(O[C@@H]2CCN(c3nc(N(C)C4CCOCC4)ncc3Cl)C2)cc1` [Example 8.221] the figure was 269 nM; with `CC(=O)N[C@@H](C)c1ccc(O[C@@H]2CCN(c3nc(N4CC(F)(F)C(F)(F)C4)ncc3Cl)C2)cc1` [Example 8.222], 150 nM; with `CC(=O)N[C@@H](C)c1ccc(O[C@@H]2CCN(c3nc(N(C)CC(C)C)ncc3Cl)C2)cc1` [Example 8.223], 103 nM.
`CC(=O)N[C@@H](C)c1ccc(O[C@@H]2CCN(c3nc(N4CCOC(C)(C)C4)ncc3F)C2)cc1` [Example 8.224] registered an IC50 of 170 nM.
With `COC[C@@H](C)N(C)c1ncc(Cl)c(N2CC[C@@H](Oc3ccc([C@H](C)NC(C)=O)cc3)C2)n1` [Example 8.225] the figure was 199 nM; with `CC(=O)N[C@@H](C)c1ccc(O[C@@H]2CCN(c3nc(N4CCC5(CC5)C4)ncc3F)C2)cc1` [Example 8.226], 52 nM.
The molecule `COC[C@H]1CCCN1c1nccc(N2CC[C@@H](Oc3ccc([C@H](C)NC(C)=O)cc3)C2)n1` [Example 8.228] displayed an IC50 of 619 nM.
With `COC1CCN(c2nccc(N3CC[C@@H](Oc4ccc([C@H](C)NC(C)=O)cc4)C3)n2)CC1` [Example 8.229] the figure was 641 nM; with `CC(=O)N[C@@H](C)c1ccc(O[C@@H]2CCN(c3ccnc(N4CC[C@H](F)C4)n3)C2)cc1` [Example 8.230], 485 nM; with `CC(=O)N[C@@H](C)c1ccc(O[C@@H]2CCN(c3ncnc(N4CC(F)(F)C(F)(F)C4)c3F)C2)cc1` [Example 8.231], 127 nM.
`CC(=O)N[C@@H](C)c1ccc(O[C@@H]2CCN(c3ncnc(N(C)C4CCC4)c3F)C2)cc1` [Example 8.232] had an IC50 of 60 nM.
The value for `CC(=O)N[C@@H](C)c1ccc(O[C@@H]2CCN(c3ncnc(N4CCCC4C)c3F)C2)cc1` (stereo partly drawn) [Example 8.233] was 153 nM.
The value for `CO[C@@H]1CCN(c2ncnc(N3CC[C@@H](Oc4ccc([C@H](C)NC(C)=O)cc4)C3)c2F)C1` [Example 8.234] was 898 nM; that for `CC(=O)N[C@@H](C)c1ccc(O[C@@H]2CCN(c3ncnc(N4CCC5(CC5)C4)c3F)C2)cc1` [Example 8.235] was 45 nM.
The value for `CC(=O)N[C@@H](C)c1ccc(O[C@@H]2CCN(c3ncnc(N(C)C4CCCOC4)c3F)C2)cc1` (stereo partly drawn) [Example 8.236] was 314 nM.
On to `CC(=O)N[C@@H](C)c1ccc(O[C@@H]2CCN(c3ncnc(N4CC(C)(O)C4)c3F)C2)cc1` [Example 8.237], for which the IC50 was 749 nM.
The value for `CC(=O)N[C@@H](C)c1ccc(O[C@@H]2CCN(c3nc(N4CCc5nocc5C4)ncc3F)C2)cc1` [Example 8.238] was 534 nM.
The value for `CC(=O)N[C@@H](C)c1ccc(O[C@@H]2CCN(c3nc(N(C)CC(C)O)ncc3F)C2)cc1` (stereo partly drawn) [Example 8.239] was 487 nM; that for `CCN(CCO)c1ncc(F)c(N2CC[C@@H](Oc3ccc([C@H](C)NC(C)=O)cc3)C2)n1` [Example 8.240] was 215 nM; that for `CC(=O)N[C@@H](C)c1ccc(O[C@@H]2CCN(c3nc(N4CC[C@H](F)C4)ncc3Cl)C2)cc1` [Example 8.241] was 594 nM.
With `COCCCN(C)c1nccc(N2CC[C@@H](Oc3ccc([C@H](C)NC(C)=O)cc3)C2)n1` [Example 8.242] the figure was 459 nM; with `CC(=O)N[C@@H](C)c1ccc(O[C@@H]2CCN(c3ccnc(N4CCCC4(C)C)n3)C2)cc1` [Example 8.243], 559 nM.
In turn, `CC(=O)N[C@@H](C)c1ccc(O[C@@H]2CCN(c3nc(N4CC=CC4)ncc3F)C2)cc1` [Example 8.244] gave an IC50 of 165 nM.
`CC(=O)N[C@@H](C)c1ccc(O[C@@H]2CCN(c3nc(N4CC[C@H](O)C4)ncc3F)C2)cc1` [Example 8.245] yielded a 50% inhibitory concentration (IC50) of 937 nM.
With `CC(=O)N[C@@H](C)c1ccc(O[C@@H]2CCN(c3ccnc(N4CCc5nocc5C4)n3)C2)cc1` [Example 8.246] the figure was 680 nM.
The value for `CC(=O)N[C@@H](C)c1ccc(O[C@@H]2CCN(c3nc(N(C)CCC(F)(F)F)ncc3Cl)C2)cc1` [Example 8.247] was 110 nM.
The value for `CC(=O)N[C@@H](C)c1ccc(O[C@@H]2CCN(c3nc(N(C)CCO)ncc3Cl)C2)cc1` [Example 8.248] was 1040 nM; that for `CC(=O)N[C@@H](C)c1ccc(O[C@@H]2CCN(c3ncnc(N4CCCC4(C)C)c3F)C2)cc1` [Example 8.250] was 358 nM.
`CC(=O)N[C@@H](C)c1ccc(O[C@@H]2CCN(c3ncnc(N4CCC(F)(F)CC4)c3F)C2)cc1` [Example 8.251] registered an IC50 of 97 nM.
Regarding `COC1CCCN(c2ncnc(N3CC[C@@H](Oc4ccc([C@H](C)NC(C)=O)cc4)C3)c2F)C1` (stereo partly drawn) [Example 8.252], inhibition was half-maximal at 1060 nM (IC50).
The value for `CC(=O)N[C@@H](C)c1ccc(O[C@@H]2CCN(c3ccnc(N(C)C4CCC4)n3)C2)cc1` [Example 8.253] was 79 nM; that for `CC(=O)N[C@@H](C)c1ccc(O[C@@H]2CCN(c3nc(N4CCCC4C)ncc3F)C2)cc1` (stereo partly drawn) [Example 8.254] was 60 nM; that for `CC(=O)N[C@@H](C)c1ccc(O[C@@H]2CCN(c3nc(N(C)C4CCCOC4)ncc3Cl)C2)cc1` (stereo partly drawn) [Example 8.255] was 303 nM.
In the case of `CC(=O)N[C@@H](C)c1ccc(O[C@@H]2CCN(c3nc(N4CCC(C)(O)C4)ncc3Cl)C2)cc1` (stereo partly drawn) [Example 8.256], the IC50 is 303 nM.
The value for `CC(=O)N[C@@H](C)c1ccc(O[C@@H]2CCN(c3nc(N4CCOC(C(F)(F)F)C4)ncc3F)C2)cc1` (stereo partly drawn) [Example 8.257] was 121 nM; that for `CC(=O)N[C@@H](C)c1ccc(O[C@@H]2CCN(c3nc(N(C)C[C@@H]4CCCO4)ncc3Cl)C2)cc1` [Example 8.258] was 105 nM; that for `CO[C@H]1CCN(c2ncc(F)c(N3CC[C@@H](Oc4ccc([C@H](C)NC(C)=O)cc4)C3)n2)C1` [Example 8.259] was 173 nM.
The value for `CCN(c1nccc(N2CC[C@@H](Oc3ccc([C@H](C)NC(C)=O)cc3)C2)n1)C(C)C` [Example 8.260] was 180 nM; that for `CC(=O)N[C@@H](C)c1ccc(O[C@@H]2CCN(c3nc(N4CCC(F)(F)CC4)ncc3F)C2)cc1` [Example 8.261] was 96 nM.
The value for `COC[C@@H]1CCCN1c1ncc(F)c(N2CC[C@@H](Oc3ccc([C@H](C)NC(C)=O)cc3)C2)n1` [Example 8.262] was 129 nM.
Regarding `CCN(CCO)c1nccc(N2CC[C@@H](Oc3ccc([C@H](C)NC(C)=O)cc3)C2)n1` [Example 8.263], the concentration for half-maximal inhibition (IC50) came out at 698 nM.
The value for `CC(=O)N[C@@H](C)c1ccc(O[C@@H]2CCN(c3ccnc(N4CCCOCC4)n3)C2)cc1` [Example 8.264] was 282 nM; that for `CC(=O)N[C@@H](C)c1ccc(O[C@@H]2CCN(c3ccnc(N4CC[C@H](F)C4)n3)C2)cc1` [Example 8.265] was 379 nM; that for `CC(=O)N[C@@H](C)c1ccc(O[C@@H]2CCN(c3nc(N(C)CC(C)(C)O)ncc3Cl)C2)cc1` [Example 8.266] was 995 nM.
The value for `CC(=O)N[C@@H](C)c1ccc(O[C@@H]2CCN(c3nc(N(C)C4CCC4)ncc3Cl)C2)cc1` [Example 8.267] was 64 nM.
Molecule `CC(=O)N[C@@H](C)c1ccc(O[C@@H]2CCN(c3ncnc(N(C)CC(C)C)c3F)C2)cc1` [Example 8.268] showed an IC50 of 198 nM.
The value for `CC(=O)N[C@@H](C)c1ccc(O[C@@H]2CCN(c3ncnc(N4CCC(C)(O)C4)c3F)C2)cc1` (stereo partly drawn) [Example 8.269] was 188 nM.
